Experiments:
[1] = tested on: Escherichia coli strain harboring TEM-10 beta-lactamase; conditions: cited from earlier work
[2] = tested on: Escherichia coli strain harboring wild TEM-1 beta-lactamase; conditions: cited from earlier work
[3] = tested on: Escherichia coli strain harboring TEM-12 beta-lactamase; conditions: cited from earlier work
S. aureus PC-1 [4] = assay: Bacterial growth in MHB; assay type: cell-based, Staphylococcus aureus; conditions: LF or LFC alone, sub-MIC
Procedure: (§1) The effect of LF or LFC at concentration sub-MICs alone or in combination with sub-MICs of antibiotics on bacterial growth rate of S. aureus, E. coli and K. pneumoniae was determined by monitoring bacterial cultures in MHB with the O.D.600 nm or by the count of colony forming unit per ml (cfu/ml). A volume of 2.5 ml of overnight cultures in MHB adjusted to 0.5-1 McFarland standard in saline were used to inoculate a final volume of 25 ml of fresh MHB containing the desired concentration of tested compounds. All flasks were then incubated at 37° C. with agitation (200 rpm) for 9 h. Aliquots were removed every hour to determine the culture turbidity using the spectrophotometer Philips PU 8800 (Pye Unican Ltd, Cambridge, UK). The combined antibiotic effect on bacterial growth was also determined using concentrations of LF in the presence of different concentrations of antibiotics. Briefly, a volume of 3 ml of fresh MHB containing desired concentration of drugs was adjusted to an optical density of 0.4 at 540 nm after an overnight culture. The culture was then incubated at 37° C with agitation (200 rpm). After incubation, aliquots were removed to determine the culture turbidity (OD540nm) or cfu/ml. To determine the influence of the level of iron on of the growth inhibition by the test compound, 5 μM of FeCl3 were added to the media.

[5] = tested on: β-lactamase activity of S. aureus PC-1; assay: β-lactamase activity, nitrocefin assay, bovine LF/LFC; assay type: cell-based; conditions: LF 1 mg/ml (P<0.05); LFC 32 or 64 μg/ml (P<0.001)
Procedure: The effects of sub-MICs of LF (1 mg/ml), LFC (32 and 64 μg/ml) alone or in combination with ampicillin (4μg/ml) or penicillin G (8 μg/ml) were evaluated on the β-lactamase activity of S. aureus strains SHY97-4320 and PC-1. The chromogenic cephalosporin nitrocefin (Becton Dickinson, Microbiology, Cockeysville, Md.) was used in a quantitative spectrophotometric assay. Bacterial cells were first exposed during 4 and 22-h to drugs in broth. The number of bacteria (cfu/ml) were determined and cells aliquots were centrifuged at each point in time. The pellets were suspended in 10 mM HEPES buffer (pH 7.4) to an OD415 nm of 1 for PC-1 and 2 for SHY97-4320. Nitrocefin (100 μM) was added to 100 μl of cells in a final volume of 1 ml. Hydrolysis was measured at 486 nm on spectrophotometer. β-lactamase activity was expressed as ΔO.D.486 nm/min and corrected for bacterial OD.

S. aureus PC-1 [6] = assay: Cell morphology by transmission electron microscopy; assay type: cell-based, Staphylococcus aureus
Procedure: Bacterial cells were grown overnight on MHA or MHB containing sub-MICs of penicillin G with or without LF or LFC. Microorganisms were prepared for transmission electron microscopy by fixation with glutaraldehyde followed by ferritin labelling. This method allows good- preservation of capsular material. Briefly, bacterial cells grown in the presence or absence of antibiotics were fixed in cacodylate buffer (0.1 M, pH 7.0) containing 5% (v/v) glutaraldehyde, for 2 h at 20° C. Fixed microorganims were suspended in cacodylate buffer and allowed to react with the polycationic ferritin (Sigma Chemicals, St-Louis, Mo.; final concentration 1.0 mg/ml) for 30 min at 20° C. The reaction was slowed down by 10-fold dilution with buffer, and the microorganisms were centrifuged and washed three times in cacodylate buffer. Bacterial cells were then immobilized in 4% (w/v) agar, washed 5 times in cacodylate buffer and post-fixed with 2% (w/v) osmium tetroxide for 2 h. Washings were repeated as above, and the samples dehydrated in a graded series of acetone washes. Samples were then washed twice in propylene oxide and embedded in Spurr low-viscosity resin. Thin sections were post-stained with uranyl acetate and lead citrate and examined with an electron microscope (Philips 201) at an accelerating voltage of 60 kV.
Bacterial cells of PC-1 (a constitutively high producing β-lactamase strain) were grown overnight in MHB containing 8 μg/ml of penicillin G, 16 μg/ml of LFC alone or in combination for 4-h at 37° C. with agitation at 150 rpm. Bacteria cell morphology was evaluated by transmission electron microscopy after fixation and ferritin labelling method as previously described.

E. coli SHY97-3923 = assay: Bacterial growth in MHB; assay type: cell-based, Escherichia coli
Procedure: as §1

S. aureus strains = assay: Disk diffusion susceptibility test and cefinase test; assay type: cell-based, Staphylococcus aureus; conditions: β-lactamase producing strains
Procedure: For quality control, disk diffusion susceptibility tests, as recommended by the National Committee for Clinical Laboratory Standard, were performed on all strains using standard disk of various antibiotics. After 18 h of incubation at 37° C., the diameter of the zone of complete inhibition of bacterial growth around each disk was measured. Isolates were categorized as sensitive or resistant for a given antibiotic using the recommended interpretative guidelines of the manufacturer.

K. pneumoniae SHY99-723 = assay: Bacterial growth in MHB; assay type: cell-based, Klebsiella pneumoniae
Procedure: as §1

[7] = tested on: S. typhimurium strain DT 104; conditions: isolates with decreased fluoroquinolone sensitivity; cited from earlier work
S. aureus SHY97-3906 = assay: Bacterial growth in MHB; assay type: cell-based, Staphylococcus aureus; conditions: combination of erythromycin and LF; 18-h of incubation
Procedure: as §1

For `CO/N=C(\C(=O)N[C@@H]1C(=O)N2C(C(=O)O)=C(COC(C)=O)CS[C@H]12)c1csc(N)n1` [cefotaxime], which MIC of cefotaxime [1] is on record?
The MIC of cefotaxime was 0.25 µg/mL.

What about the MIC of cefotaxime [2] of the same molecule?
Its MIC of cefotaxime is 0.03 µg/mL.

And the “conventional MIC of cefotaxime” value [3]?
The value was 0.06 µg/mL.

Which growth (S. aureus PC-1 [4]) does the source give for `CC[C@H](C)[C@@H]1NC(=O)[C@H](CO)NC(=O)[C@@H]2CCCN2C(=O)[C@H](C)NC(=O)CNC(=O)[C@H](CC(C)C)NC(=O)[C@H](CCCCN)NC(=O)[C@H](CCCCN)NC(=O)[C@H](CCSC)NC(=O)[C@H](CCCNC(=N)N)NC(=O)[C@H](Cc2c[nH]c3ccccc23)NC(=O)[C@H](CCC(N)=O)NC(=O)[C@H](Cc2c[nH]c3ccccc23)NC(=O)[C@H](CCCNC(=N)N)NC(=O)[C@H](CCCNC(=N)N)NC(=O)[C@@H](NC(=O)[C@H](CCCCN)NC(=O)[C@@H](N)Cc2ccccc2)CSSC[C@@H](C(=O)N[C@H](C(=O)N[C@@H](CCCNC(=N)N)C(=O)N[C@@H](CCCNC(=N)N)C(=O)N[C@@H](C)C(=O)N[C@@H](Cc2ccccc2)C(=O)O)C(C)C)NC(=O)[C@H]([C@@H](C)O)NC1=O` [LFC] here?
Its growth is “delayed growth”.

What about the β-lactamase activity [5] of the same molecule?
The β-lactamase activity was “strong”.

What about the “mesosome structures arising from the septa and cell wall” value (S. aureus PC-1 [6]; LFC 16 μg/ml) of the same molecule?
Its value is “induced formation of mesosome structures”.

What about the bacterial lysis (S. aureus PC-1 [6]; LFC 16 μg/ml alone, 4-h) of the same molecule?
The bacterial lysis was “A large percentage of lysed bacteria”.

What about the “bacterial lysis by LFC” value (S. aureus PC-1 [6]; LFC 16 μg/ml in the presence of penicillin G 8 μg/ml) of the same molecule?
Its value is “enhanced”.

What about the “shape and size of cells” value (S. aureus PC-1 [6]; exposure to LF or LFC) of the same molecule?
Its value is “affected the shape and the size”.

What does the source list for `Cc1nnc(SCC2=C(C(=O)O)N3C(=O)[C@@H](NC(=O)Cn4cnnn4)[C@H]3SC2)s1` [cefazolin]?
growth (E. coli SHY97-3923; cefazolin alone (0.5 g)): not able to reduce growth; growth (E. coli SHY97-3923; cefazolin with LFC): completely inhibit bacterial growth

With `CC1(C)S[C@@H]2[C@H](NC(=O)[C@H](N)c3ccccc3)C(=O)N2[C@H]1C(=O)O` [ampicillin] as the molecule, how does the “susceptibility by standard disk diffusion and cefinase test” value (S. aureus strains) read?
Its value is “resistance”.

Which “effect of neomycin on bacterial growth” value (E. coli SHY97-3923; 16 μg/ml LFC (1/16 MIC) added) does the source give for neomycin here?
Its value is “significantly enhanced”.

What about the “effect of neomycin on bacterial growth” value (E. coli SHY97-3923; 1 mg/ml of LF added) of the same molecule?
The value was “significantly enhanced”.

What about the “reduction of bacterial growth rate with neomycin” value (K. pneumoniae SHY99-723; 16 μg/ml LFC (1/16 MIC) added) of the same molecule?
Its value is 2 times.

What about the “reduction of bacterial growth rate with neomycin” value (K. pneumoniae SHY99-723; 0.5 mg/ml of LF added) of the same molecule?
The value was 2 times.

For `O=C(O)c1cn(C2CC2)c2cc(N3CCNCC3)c(F)cc2c1=O` [ciprofloxacin], which “MIC's of ciprofloxacin” value [7] is on record?
The value was 0.25 to 1.0 µg/mL.

Which growth (S. aureus SHY97-3906) does the source give for `CC[C@H]1OC(=O)[C@H](C)[C@@H](O[C@H]2C[C@@](C)(OC)[C@@H](O)[C@H](C)O2)[C@H](C)[C@@H](O[C@@H]2O[C@H](C)C[C@H](N(C)C)[C@H]2O)[C@](C)(O)C[C@@H](C)C(=O)[C@H](C)[C@@H](O)[C@]1(C)O` [erythromycin] here?
Its growth is “affected”.
